Earlier results on one compound are cited in patent US20240115713A1, “POLYETHYLENE GLYCOL CONJUGATE DRUG, AND PREPARATION METHOD THEREFOR AND USE THEREOF” (CHONGQING UPGRA BIOTECHNOLOGY CO., LTD., priority 2020, published 2024).

A word on the Kd: it is the equilibrium constant for the complex coming apart.

This data set deals with FA receptors. Conditions: read-out: Kd, binding affinity to the FA receptors.

Turning to `Nc1nc2ncc(CNc3ccc(C(=O)N[C@@H](CCC(=O)O)C(=O)O)cc3)nc2c(=O)[nH]1` [FA, folic acid], the Kd is about 0.1 nM.
